From patent publication US11572590B2, “Methods for evaluating tumor cell spheroids using 3D microfluidic cell culture device” (Dana-Farber Cancer Institute, Inc., priority 2017, dated 2023) come the findings set out here.

Experiment in all cases: SelectScreen Kinase Profiling, single point inhibition and IC50 for off-target kinases
Common to all, as to assay type: biochemical

Experiment [1] has as its target T1, off-target kinases (Homo sapiens, UniProt P54762).
T1 sequence (P54762 18-984): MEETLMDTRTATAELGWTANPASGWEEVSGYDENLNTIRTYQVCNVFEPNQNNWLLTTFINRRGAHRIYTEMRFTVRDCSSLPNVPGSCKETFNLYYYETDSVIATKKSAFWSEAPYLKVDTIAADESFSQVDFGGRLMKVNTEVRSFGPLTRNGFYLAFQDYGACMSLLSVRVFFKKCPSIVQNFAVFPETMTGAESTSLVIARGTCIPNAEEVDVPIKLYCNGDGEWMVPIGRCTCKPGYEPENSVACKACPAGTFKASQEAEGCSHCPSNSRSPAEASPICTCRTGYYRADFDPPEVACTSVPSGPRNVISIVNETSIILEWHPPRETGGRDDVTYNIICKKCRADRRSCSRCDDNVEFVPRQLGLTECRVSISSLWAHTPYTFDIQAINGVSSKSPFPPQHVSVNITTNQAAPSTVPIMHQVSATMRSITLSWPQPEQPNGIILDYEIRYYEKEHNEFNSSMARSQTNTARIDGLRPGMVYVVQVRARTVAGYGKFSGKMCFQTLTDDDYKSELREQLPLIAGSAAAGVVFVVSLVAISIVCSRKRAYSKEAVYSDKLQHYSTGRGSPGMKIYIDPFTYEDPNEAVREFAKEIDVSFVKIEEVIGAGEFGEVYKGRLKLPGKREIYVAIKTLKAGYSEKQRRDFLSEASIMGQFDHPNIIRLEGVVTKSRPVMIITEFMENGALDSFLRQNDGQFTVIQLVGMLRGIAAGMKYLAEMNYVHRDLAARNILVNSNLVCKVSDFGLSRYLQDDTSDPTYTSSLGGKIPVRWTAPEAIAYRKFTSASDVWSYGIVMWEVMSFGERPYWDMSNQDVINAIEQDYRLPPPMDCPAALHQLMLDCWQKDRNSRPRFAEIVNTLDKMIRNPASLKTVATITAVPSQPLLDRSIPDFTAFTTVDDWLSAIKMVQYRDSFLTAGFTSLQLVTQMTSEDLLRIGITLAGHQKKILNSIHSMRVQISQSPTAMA
As to conditions: EPHB1, ZLYTE, ATP Km app.

The target of experiment [2] is off-target kinases (Homo sapiens, UniProt P49840). The following applies: GSK3A (GSK3 alpha), ZLYTE, ATP Km app.
The target in experiment [3] is off-target kinases (Homo sapiens, UniProt P14616). As to conditions: INSRR (IRR), ZLYTE, ATP Km app.
For experiment [4], the target named is off-target kinases (Homo sapiens, UniProt Q5S007, G2019S). The following applies: ATP Km app, Adapta.
Experiment [5] addresses T2, off-target kinases (Homo sapiens, UniProt P36896).
T2 sequence (P36896 24-505): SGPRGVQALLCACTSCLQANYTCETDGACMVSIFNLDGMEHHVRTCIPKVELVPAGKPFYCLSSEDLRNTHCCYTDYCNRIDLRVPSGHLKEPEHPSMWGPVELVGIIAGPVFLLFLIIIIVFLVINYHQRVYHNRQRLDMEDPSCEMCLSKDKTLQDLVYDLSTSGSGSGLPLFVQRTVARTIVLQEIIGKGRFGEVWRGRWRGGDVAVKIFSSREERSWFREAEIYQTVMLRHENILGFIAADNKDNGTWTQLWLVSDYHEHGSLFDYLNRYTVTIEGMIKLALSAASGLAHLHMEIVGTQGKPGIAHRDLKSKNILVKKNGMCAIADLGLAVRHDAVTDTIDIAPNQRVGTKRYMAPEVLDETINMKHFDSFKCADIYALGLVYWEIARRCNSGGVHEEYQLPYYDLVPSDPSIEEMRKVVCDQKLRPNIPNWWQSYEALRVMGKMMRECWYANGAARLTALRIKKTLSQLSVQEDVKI
As to conditions: ACVR1B (ALK4); Cmpd1 1000 μM; ATP Km app; ZLYTE.

Read-outs that look alike come from different tables or passages of the source.

Sequence of off-target kinases (Homo sapiens, UniProt P14616) (P14616 27-1297): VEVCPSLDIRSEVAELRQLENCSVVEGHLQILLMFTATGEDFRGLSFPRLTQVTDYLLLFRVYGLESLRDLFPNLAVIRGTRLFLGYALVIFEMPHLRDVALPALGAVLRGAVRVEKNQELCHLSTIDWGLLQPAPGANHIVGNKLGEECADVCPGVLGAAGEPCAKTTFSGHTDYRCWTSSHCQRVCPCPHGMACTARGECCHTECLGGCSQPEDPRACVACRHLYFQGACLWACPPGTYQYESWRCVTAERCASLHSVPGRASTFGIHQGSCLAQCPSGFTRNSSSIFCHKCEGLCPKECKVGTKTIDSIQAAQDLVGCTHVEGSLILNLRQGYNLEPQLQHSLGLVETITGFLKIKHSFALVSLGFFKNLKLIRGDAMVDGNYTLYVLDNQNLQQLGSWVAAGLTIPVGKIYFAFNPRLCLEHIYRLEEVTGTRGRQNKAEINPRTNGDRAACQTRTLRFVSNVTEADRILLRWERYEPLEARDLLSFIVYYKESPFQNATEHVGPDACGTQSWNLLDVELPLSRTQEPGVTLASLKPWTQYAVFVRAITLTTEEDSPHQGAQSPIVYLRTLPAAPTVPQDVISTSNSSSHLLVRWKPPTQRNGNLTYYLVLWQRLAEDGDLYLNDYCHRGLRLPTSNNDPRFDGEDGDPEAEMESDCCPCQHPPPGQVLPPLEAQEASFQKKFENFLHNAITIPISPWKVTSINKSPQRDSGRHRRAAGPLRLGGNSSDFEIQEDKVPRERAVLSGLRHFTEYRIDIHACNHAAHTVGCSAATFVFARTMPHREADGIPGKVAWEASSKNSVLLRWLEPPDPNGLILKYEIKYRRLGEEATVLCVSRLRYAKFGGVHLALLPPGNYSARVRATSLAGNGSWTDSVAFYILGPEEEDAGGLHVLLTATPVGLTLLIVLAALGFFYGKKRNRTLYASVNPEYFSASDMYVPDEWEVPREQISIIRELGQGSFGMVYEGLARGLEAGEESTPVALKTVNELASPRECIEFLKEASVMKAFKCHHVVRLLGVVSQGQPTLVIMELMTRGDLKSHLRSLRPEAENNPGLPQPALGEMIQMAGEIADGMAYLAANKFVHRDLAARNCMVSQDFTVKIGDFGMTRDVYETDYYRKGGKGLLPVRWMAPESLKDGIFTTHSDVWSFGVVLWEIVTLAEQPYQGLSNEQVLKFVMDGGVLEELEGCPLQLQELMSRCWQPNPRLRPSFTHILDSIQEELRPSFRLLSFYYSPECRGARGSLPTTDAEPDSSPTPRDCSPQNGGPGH
Sequence of off-target kinases (Homo sapiens, UniProt P49840) (P49840 whole entry): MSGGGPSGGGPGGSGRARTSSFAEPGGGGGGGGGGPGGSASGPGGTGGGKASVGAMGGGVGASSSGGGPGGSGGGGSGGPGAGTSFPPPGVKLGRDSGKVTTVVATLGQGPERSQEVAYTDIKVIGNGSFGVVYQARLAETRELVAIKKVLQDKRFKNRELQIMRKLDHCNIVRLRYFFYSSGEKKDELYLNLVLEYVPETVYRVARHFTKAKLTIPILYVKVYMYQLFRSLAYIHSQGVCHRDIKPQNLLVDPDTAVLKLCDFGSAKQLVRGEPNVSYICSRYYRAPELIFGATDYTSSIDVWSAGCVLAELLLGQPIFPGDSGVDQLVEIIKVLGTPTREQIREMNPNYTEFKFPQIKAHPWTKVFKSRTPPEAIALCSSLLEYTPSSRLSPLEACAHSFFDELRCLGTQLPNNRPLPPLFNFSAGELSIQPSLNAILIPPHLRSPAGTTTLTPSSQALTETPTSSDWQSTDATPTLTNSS
Sequence of off-target kinases (Homo sapiens, UniProt Q5S007, G2019S) (Q5S007 whole entry G2019S): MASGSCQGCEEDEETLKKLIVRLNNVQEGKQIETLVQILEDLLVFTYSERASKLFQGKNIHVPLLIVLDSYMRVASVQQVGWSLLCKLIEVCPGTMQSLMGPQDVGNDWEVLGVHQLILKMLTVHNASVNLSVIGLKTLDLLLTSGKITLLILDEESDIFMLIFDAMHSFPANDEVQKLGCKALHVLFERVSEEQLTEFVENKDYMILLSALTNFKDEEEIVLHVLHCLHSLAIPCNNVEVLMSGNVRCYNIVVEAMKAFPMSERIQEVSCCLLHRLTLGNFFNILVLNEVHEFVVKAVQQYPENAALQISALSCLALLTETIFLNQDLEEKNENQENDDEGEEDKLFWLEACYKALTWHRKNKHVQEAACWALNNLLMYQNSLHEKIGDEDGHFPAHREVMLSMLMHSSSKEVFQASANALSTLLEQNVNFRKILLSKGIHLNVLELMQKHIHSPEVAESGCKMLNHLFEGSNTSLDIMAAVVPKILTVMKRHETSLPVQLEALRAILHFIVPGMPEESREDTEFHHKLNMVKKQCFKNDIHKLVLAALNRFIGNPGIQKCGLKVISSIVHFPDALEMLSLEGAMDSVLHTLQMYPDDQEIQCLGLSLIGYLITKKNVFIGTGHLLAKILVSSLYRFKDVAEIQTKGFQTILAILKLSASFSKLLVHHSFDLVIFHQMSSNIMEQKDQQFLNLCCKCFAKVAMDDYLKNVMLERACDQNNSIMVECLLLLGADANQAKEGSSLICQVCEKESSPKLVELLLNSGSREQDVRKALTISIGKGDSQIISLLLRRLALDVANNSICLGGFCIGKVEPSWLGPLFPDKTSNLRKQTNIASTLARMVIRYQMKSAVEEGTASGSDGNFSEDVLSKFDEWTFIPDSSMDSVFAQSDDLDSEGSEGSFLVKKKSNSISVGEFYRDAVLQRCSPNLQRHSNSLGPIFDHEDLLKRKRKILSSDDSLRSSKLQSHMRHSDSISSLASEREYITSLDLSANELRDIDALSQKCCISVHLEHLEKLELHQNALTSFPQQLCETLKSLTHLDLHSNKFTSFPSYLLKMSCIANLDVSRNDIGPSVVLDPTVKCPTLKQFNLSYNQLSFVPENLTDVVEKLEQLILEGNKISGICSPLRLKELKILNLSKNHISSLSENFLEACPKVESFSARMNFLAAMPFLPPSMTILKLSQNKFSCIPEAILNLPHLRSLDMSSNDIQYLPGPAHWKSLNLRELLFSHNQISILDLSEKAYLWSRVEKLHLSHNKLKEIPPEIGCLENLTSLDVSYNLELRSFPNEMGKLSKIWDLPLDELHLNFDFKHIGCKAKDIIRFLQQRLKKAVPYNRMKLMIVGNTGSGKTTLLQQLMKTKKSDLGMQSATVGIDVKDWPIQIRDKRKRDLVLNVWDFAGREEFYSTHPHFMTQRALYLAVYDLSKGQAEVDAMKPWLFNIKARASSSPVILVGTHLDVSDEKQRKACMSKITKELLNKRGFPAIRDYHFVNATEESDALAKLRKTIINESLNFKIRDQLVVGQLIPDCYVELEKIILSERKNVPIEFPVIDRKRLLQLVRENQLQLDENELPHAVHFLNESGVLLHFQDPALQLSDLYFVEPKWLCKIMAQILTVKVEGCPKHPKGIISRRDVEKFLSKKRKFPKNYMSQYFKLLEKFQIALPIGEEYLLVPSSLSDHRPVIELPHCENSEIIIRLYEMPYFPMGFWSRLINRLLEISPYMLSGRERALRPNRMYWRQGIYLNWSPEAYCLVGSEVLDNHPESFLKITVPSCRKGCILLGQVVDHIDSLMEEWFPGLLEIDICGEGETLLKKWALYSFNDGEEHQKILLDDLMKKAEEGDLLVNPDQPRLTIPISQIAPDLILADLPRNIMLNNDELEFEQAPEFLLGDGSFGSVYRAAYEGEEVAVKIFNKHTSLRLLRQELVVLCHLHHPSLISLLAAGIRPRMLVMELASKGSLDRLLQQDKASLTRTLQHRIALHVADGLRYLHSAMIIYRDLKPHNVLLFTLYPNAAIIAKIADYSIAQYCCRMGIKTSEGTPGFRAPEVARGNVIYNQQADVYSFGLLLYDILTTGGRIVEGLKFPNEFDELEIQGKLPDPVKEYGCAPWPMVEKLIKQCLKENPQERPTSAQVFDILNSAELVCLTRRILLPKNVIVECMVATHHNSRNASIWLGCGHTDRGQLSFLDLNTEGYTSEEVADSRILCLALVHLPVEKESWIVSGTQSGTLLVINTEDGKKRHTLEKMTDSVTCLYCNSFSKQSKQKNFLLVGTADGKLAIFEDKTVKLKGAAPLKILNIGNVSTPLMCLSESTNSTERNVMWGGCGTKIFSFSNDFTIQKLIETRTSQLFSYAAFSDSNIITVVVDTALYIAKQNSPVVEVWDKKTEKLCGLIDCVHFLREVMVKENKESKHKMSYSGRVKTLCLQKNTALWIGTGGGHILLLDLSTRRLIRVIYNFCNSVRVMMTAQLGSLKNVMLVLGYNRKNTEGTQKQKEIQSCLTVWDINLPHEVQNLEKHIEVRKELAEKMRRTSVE

In the case of `N#Cc1cc(-c2ncnc(Nc3ccc(N4CCN(C5COC5)CC4)cc3)n2)ccc1OC1CCOCC1` [Compound 1, 5-(4-((4-(4-(oxetan-3-yl)piperazin-1-yl)phenyl)amino)-1,3,5-triazin-2-yl)-2-((tetrahydro-2H-pyran-4-yl)oxy)benzonitrile], the inhibition at off-target kinases [1] (read-out: % Inhibition 1) was determined as 34%; at off-target kinases [1] (read-out: % Inhibition 2) it was 31%; at off-target kinases [1] (read-out: % Inhibition Avg), 33%; at off-target kinases [2] (read-out: % Inhibition 1), 20%; at off-target kinases [2] (read-out: % Inhibition 2) it was 22%; at off-target kinases [2] (read-out: % Inhibition Avg), 21%. In addition, the inhibition at off-target kinases [3] (read-out: % Inhibition 1) came out at 5%; at off-target kinases [3] (read-out: % Inhibition 2), 4%; at off-target kinases [3] (read-out: % Inhibition Avg), 4%; on off-target kinases [4] (LRRK2 G2019S FL, read-out: % Inhibition 1) it was 100%; on off-target kinases [4] (LRRK2 G2019S FL, read-out: % Inhibition 2) it was 99%; on off-target kinases [4] (LRRK2 G2019S FL, read-out: % Inhibition Avg), 99%. For the same molecule, the inhibition on off-target kinases [4] (LRRK2 G2019S, read-out: % Inhibition 1) was found to be 99%; at off-target kinases [4] (LRRK2 G2019S, read-out: % Inhibition 2) it was 100%; on off-target kinases [4] (LRRK2 G2019S, read-out: % Inhibition Avg) it was 100%. Besides, at off-target kinases [5], the “% Inhibition 1” value was −10%. Also, the “% Inhibition 2” value on off-target kinases [5] is listed as −4%. Moreover, the “% Inhibition Avg” value at off-target kinases [5] is −7%.

The inhibition is the drop in the measured response relative to a control, in per cent.
